What all share (details): 50 mM Tris-HCl pH 8.0, 10 μM MgCl2, 30 °C, 10 min, FPP 2-80 μM
Assay [1] has as its target T1, AaFS (Artemisia annua, UniProt Q9FXY7, M436I, form not given).
T1 construct: gene CASC125
An excerpt: (§1) steady-state kinetics, product quantified by peak area after hexane extraction on AaFS

Assay [2] has as its target T2, AaFS (Artemisia annua, UniProt Q9FXY7, L326I, form not given).
T2 construct: gene CASC125
Description: as §1

Assay [3] deals with T3, AaFS (Artemisia annua, UniProt Q9FXY7, W299C, form not given).
T3 construct: gene CASC125
T3 sequence (Q9FXY7 whole entry W299C, form open): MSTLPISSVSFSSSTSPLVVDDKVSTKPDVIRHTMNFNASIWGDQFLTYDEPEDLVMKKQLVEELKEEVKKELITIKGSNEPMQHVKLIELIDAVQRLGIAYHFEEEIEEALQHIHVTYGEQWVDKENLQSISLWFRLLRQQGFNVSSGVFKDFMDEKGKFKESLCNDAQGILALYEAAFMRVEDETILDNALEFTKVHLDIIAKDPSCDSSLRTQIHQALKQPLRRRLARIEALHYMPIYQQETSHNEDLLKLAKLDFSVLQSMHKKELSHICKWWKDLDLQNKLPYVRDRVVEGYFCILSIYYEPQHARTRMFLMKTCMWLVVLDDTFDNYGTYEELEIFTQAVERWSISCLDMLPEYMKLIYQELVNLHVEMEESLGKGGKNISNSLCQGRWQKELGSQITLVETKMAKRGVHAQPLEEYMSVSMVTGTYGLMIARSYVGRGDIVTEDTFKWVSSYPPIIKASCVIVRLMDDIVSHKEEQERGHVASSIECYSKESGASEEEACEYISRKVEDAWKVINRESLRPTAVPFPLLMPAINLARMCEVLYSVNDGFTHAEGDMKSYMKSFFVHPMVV
Description: as §1

Assay [4] addresses T4, AaFS (Artemisia annua, UniProt Q9FXY7).
T4 construct: gene CASC125
Description: as §1

Molecules are shown by their SMILES.

T1 sequence (Q9FXY7 whole entry M436I, form open): as the sequence (Q9FXY7 whole entry W299C, form open) above, with C299W, M436I counted along it
T4 sequence (Q9FXY7 whole entry): as the sequence (Q9FXY7 whole entry W299C, form open) above, with C299W counted along it
T2 sequence (Q9FXY7 whole entry L326I, form open): as the sequence (Q9FXY7 whole entry W299C, form open) above, with C299W, L326I counted along it

For the compound `CC(C)=CCC/C(C)=C/CC/C(C)=C/CO[P@@](=O)(O)OP(=O)(O)O` (stereo in doubt) [FPP, farnesyl pyrophosphate], the Km – broadly, the concentration of substrate that gives half-maximal velocity – came out at 7.64 ± 4.8 µM in assay [1], 6.75 ± 3.7 µM in assay [2], 21.3 ± 1.8 µM in assay [3] and 14.3 ± 2.3 µM in assay [4].

For the origin of these results see article PMC11638952, “Fine-Tuning the Function of Farnesene Synthases for Selective Synthesis of Farnesene Stereoisomers” (Journal of Agricultural and Food Chemistry, 2024).
